# Data reported in patent EP4700096A1, “INK COMPOSITION FOR INK-JET PRINTING” (Sakata INX Corporation, priority 2023, dated 2024).
# Assay: SP value (solubility parameter) calculated by Formula 1
# Format: physicochemical
# Details: 25°C (298 K), calculated by Formula 1 from latent heat of vaporization, molecular weight, density
# From the text: The SP value refers to the solubility parameter, and the SP value of the water-soluble organic solvent (B) can be determined by formula 1 below. SP value(unit:((cal/cm^3))^(1/2)) = ({(ΔH−RT)/(M/D)})^(1/2) [formula]
row,SP value (25°C),SMILES
1,9.0 (cal/cm^3)^1/2,CC(O)COC(C)COC(C)CO (stereo not drawn) [Tripropylene glycol]
2,12.6 (cal/cm^3)^1/2,"CC(O)CO (stereo not drawn) [1,2-propanediol]"
3,14.9 (cal/cm^3)^1/2,OCC(O)CO [glycerin]
